In article PMC6753678, “Fueling Open Innovation for Malaria Transmission-Blocking Drugs: Hundreds of Molecules Targeting Early Parasite Mosquito Stages” (Frontiers in Microbiology, 2019):
Read-outs that look alike come from different tables or passages of the source.

Key:
[1] = tested on: P. falciparum late stage (stages IV-V) gametocytes; assay: P. falciparum late stage gametocyte ATP depletion assay (Pf GC-ATP); conditions: 1: YES; 0: NO
HepG2 cells [2] = assay: HepG2 cytotoxicity assay
How it was run: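 Cells at 2,500 per well in MEM with 10% fetal bovine serum and 1% NEAA were exposed to test compounds for 48 h at 37°C, 5% CO2. Viability was read by fluorescence, with percent inhibition calculated against 50 μM doxorubicin (positive) and DMSO (negative) controls.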

[3] = tested on: P. falciparum female gametocytes; assay: P. falciparum female gametogenesis assay (Pf FGAA); conditions: 1: YES; 0: NO
[4] = tested on: P. falciparum late stage (stages IV-V) gametocytes; set-up: method as in Almela et al 2016; conditions: ref Almela et al 2016, read-out: Pf GCT ATP IC50, cited from earlier work
HepG2 cells [5] = conditions: cited from earlier work
[6] = tested on: P. falciparum female gametocytes; set-up: method as in Miguel-Blanco et al 2017; conditions: ref Miguel-Blanco et al 2017, read-out: Pf FGAA IC50, cited from earlier work
[7] = HepG2 cytotoxicity unified across the three screens
[8] = value reported with the Pf FGAA screen, ref Miguel-Blanco et al 2017
[9] = value reported with the Pf GCT ATP screen, ref Almela et al 2016
[10] = HepG2 values of the three screens unified

SMILES | Is compound selective in assay? Pf GC-ATP active? [1] | Unified cytotox (HepG2 cells [2]; [7]) | Is compound selective in assay? Pf FGAA active? [3] | IC50 ([4]; TCAMS screen comparison) | HepG2 cytoxicity (HepG2 cells [5]; [8]) | HepG2 cytoxicity (HepG2 cells [5]; [9]) | IC50 ([6]; TCAMS screen comparison) | Unified cytotox (HepG2 cells [2]; [10]) | IC50 [4] | HepG2 cytoxicity (Pf GCT ATP screen) (HepG2 cells [5]; ref Almela et al 2016) | HepG2 cytoxicity (Pf FGAA screen) (HepG2 cells [5]; ref Miguel-Blanco et al 2017) | IC50 [6]
COc1cc2ccccc2c(CNCCCCCCNCc2c(OC)c(OC)cc3ccccc23)c1OC.CS(=O)(=O)O [TCMDC-137795] | 0 (0: NO) | 4.66 µM | 0 (0: NO) | 1050 nM | 4.62 µM | 4.7 µM | 670 nM |  |  |  |  | 
COc1ccc2ccc(OC)c(CNCCCCCCNCc3c(OC)ccc4ccc(OC)cc34)c2c1.CS(=O)(=O)O [TCMDC-137796] | 1 (1: YES) | 3.36 µM | 0 (0: NO) | 290 nM | 3.31 µM | 3.4 µM | 1210 nM |  |  |  |  | 
COc1ccc2cc(CNCCCCCCNCc3ccc4cc(OC)ccc4c3)ccc2c1.CS(=O)(=O)O [TCMDC-137797] | 0 (0: NO) | 2.27 µM | 0 (0: NO) | 670 nM | 1.55 µM | 3 µM | 590 nM |  |  |  |  | 
c1cc(C2=N[C@H]3CCCC[C@@H]3N2)ccc1OCCCOc1ccc(C2=N[C@@H]3CCCC[C@H]3N2)cc1 [TCMDC-137803] | 1 (1: YES) | 38.02 µM | 0 (0: NO) | 470 nM | 38.02 µM | >25 µM | 11500 nM |  |  |  |  | 
CS(=O)(=O)O.FC(F)(F)COc1ccc2ccccc2c1CNCCCCCCNCc1c(OCC(F)(F)F)ccc2ccccc12 [TCMDC-137816] | 0 (0: NO) | 2.44 µM | 0 (0: NO) | 370 nM | 1.84 µM | 3.04 µM | 1090 nM |  |  |  |  | 
COc1c(OC)c(OC)c2ccccc2c1CNCCCCCCNCc1c(OC)c(OC)c(OC)c2ccccc12.Cl [TCMDC-137827] | 0 (0: NO) | 3.08 µM | 0 (0: NO) | 1150 nM | 2.95 µM | 3.2 µM | 1670 nM |  |  |  |  | 
C#CCCOc1ccc2ccccc2c1CNCCCCCCNCc1c(OCCC#C)ccc2ccccc12 [TCMDC-137832] | 1 (1: YES) | 5.14 µM | 0 (0: NO) | 410 nM | 4.79 µM | 5.5 µM | 920 nM |  |  |  |  | 
C#CCOc1ccc2ccccc2c1CNCCCCCCNCc1c(OCC#C)ccc2ccccc12.CS(=O)(=O)O [TCMDC-137838] | 0 (0: NO) | 3.05 µM | 0 (0: NO) | 500 nM | 2.92 µM | 3.19 µM | 1050 nM |  |  |  |  | 
COc1cc2ccccc2c(OC)c1CCNCCCCNCCc1c(OC)cc2ccccc2c1OC.CS(=O)(=O)O [TCMDC-137842] | 1 (1: YES) |  | 0 (0: NO) |  |  |  |  | 3.68 µM | 310 nM | 3.2 µM | 4.17 µM | 1240 nM
CCCCOc1cc(OC)c2ccccc2c1CCNCCCCNCCc1c(OCCCC)cc(OC)c2ccccc12.CS(=O)(=O)O [TCMDC-137845] | 0 (0: NO) |  | 0 (0: NO) |  |  |  |  | 2.49 µM | 500 nM | 3 µM | 1.97 µM | 760 nM
CCCCOc1c(CCNCCCCNCCc2cc(OC)c3ccccc3c2OCCCC)cc(OC)c2ccccc12.CS(=O)(=O)O [TCMDC-137848] | 1 (1: YES) |  | 0 (0: NO) |  |  |  |  | 2.54 µM | 80 nM | 3.1 µM | 1.97 µM | 610 nM
CS(=O)(=O)O.FC(F)(F)COc1ccc(CNCCCCCCNCc2ccc(OCC(F)(F)F)c3ccccc23)c2ccccc12 [TCMDC-137853] | 1 (1: YES) | 2.73 µM | 0 (0: NO) | 55 nM | 2.46 µM | 3 µM | 630 nM |  |  |  |  | 
COc1c(CCNCCCCNCCc2cc(Cl)c3ccccc3c2OC)cc(Cl)c2ccccc12.CS(=O)(=O)O [TCMDC-137869] | 1 (1: YES) |  | 0 (0: NO) |  |  |  |  | 2.57 µM | 80 nM | 3.36 µM | 1.78 µM | 330 nM
CN(CCCNCc1ccc2ccccc2c1)CCCNCc1ccc2ccccc2c1.Cl [TCMDC-137908] | 1 (1: YES) |  | 1 (1: YES) |  |  |  |  | 4.85 µM | 50 nM | 4.68 µM | 5.01 µM | 90 nM
COc1ccc2ccccc2c1CNCCCCCCNCc1c(OC)ccc2ccccc12.Cl [TCMDC-137915] | 1 (1: YES) |  | 0 (0: NO) |  |  |  |  | 3.90 µM | 250 nM | 3.59 µM | 4.22 µM | 700 nM
COc1ccc2c(c1)CC(C)(C)NC2CCCCCCCCC1NC(C)(C)Cc2cc(OC)ccc21.O=C(O)C(=O)O (stereo not drawn) [TCMDC-137935] | 0 (0: NO) | 5.47 µM | 0 (0: NO) | 790 nM | 5.62 µM | 5.32 µM | 1470 nM |  |  |  |  | 
CCOc1cc(CNCCCCCCNCc2cc(OCC)c(OCC)c3ccccc23)c2ccccc2c1OCC.CS(=O)(=O)O [TCMDC-137939] | 0 (0: NO) |  | 0 (0: NO) |  |  |  |  | 2.35 µM | 750 nM | 2.7 µM | 2.00 µM | 1780 nM
COc1cc2ccccc2cc1CCNCCCCNCCc1cc2ccccc2cc1OC.CS(=O)(=O)O [TCMDC-137944] | 1 (1: YES) | 2.53 µM | 0 (0: NO) | 110 nM | 1.66 µM | 3.39 µM | 620 nM |  |  |  |  | 
CCCOc1ccc(CCNCCCCNCCc2ccc(OCCC)c3ccccc23)c2ccccc12.CS(=O)(=O)O [TCMDC-137952] | 1 (1: YES) | 2.38 µM | 0 (0: NO) | 80 nM | 2.16 µM | 2.6 µM | 610 nM |  |  |  |  | 
COc1ccc2c(OC)c(CNCCCCCCNCc3ccc4cc(OC)ccc4c3OC)ccc2c1.CS(=O)(=O)O [TCMDC-137953] | 0 (0: NO) | 2.66 µM | 0 (0: NO) | 1540 nM | 2.11 µM | 3.2 µM | 1000 nM |  |  |  |  | 
CCCCCCOc1ccc2ccccc2c1CNCCCCCCNCc1c(OCCCCCC)ccc2ccccc12.CS(=O)(=O)O [TCMDC-137963] | 0 (0: NO) | 2.85 µM | 0 (0: NO) | 480 nM | 2.40 µM | 3.3 µM | 1500 nM |  |  |  |  | 
CC(C)Oc1ccc2ccccc2c1CNCCCCCCNCc1c(OC(C)C)ccc2ccccc12.CS(=O)(=O)O [TCMDC-137965] | 1 (1: YES) | 2.14 µM | 0 (0: NO) | 140 nM | 1.91 µM | 2.38 µM | 950 nM |  |  |  |  | 
CCCOc1ccc2ccccc2c1CNCCCCCCNCc1c(OCCC)ccc2ccccc12.CS(=O)(=O)O [TCMDC-137966] | 0 (0: NO) | 2.55 µM | 0 (0: NO) | 340 nM | 2.00 µM | 3.1 µM | 1030 nM |  |  |  |  | 
CC(C)COc1ccc2ccccc2c1CNCCCCCCNCc1c(OCC(C)C)ccc2ccccc12.CS(=O)(=O)O [TCMDC-137972] | 1 (1: YES) | 2.03 µM | 0 (0: NO) | 100 nM | 2.19 µM | 1.88 µM | 810 nM |  |  |  |  | 
